Results published in patent US8603751B2, “Mycobacterial disease detection, treatment, and drug discovery” (priority 2006, dated 2013).

Target: DevR (also known as DosR or Rv3133c) dimerization (Mycobacterium tuberculosis, UniProt P9WMF9)
Experiment: M-PFC Alamar Blue screen for inhibitors of DevR dimerization
Format: cell-based
Settings: for effect on DevR dimerization: M-PFC Alamar Blue assay in Msm, titration (FIG. 11); for concentration with the most dramatic effect on DevR dimerization: titration curves, FIG. 11

Sequence of DevR (also known as DosR or Rv3133c) dimerization (P9WMF9 whole entry, looked up): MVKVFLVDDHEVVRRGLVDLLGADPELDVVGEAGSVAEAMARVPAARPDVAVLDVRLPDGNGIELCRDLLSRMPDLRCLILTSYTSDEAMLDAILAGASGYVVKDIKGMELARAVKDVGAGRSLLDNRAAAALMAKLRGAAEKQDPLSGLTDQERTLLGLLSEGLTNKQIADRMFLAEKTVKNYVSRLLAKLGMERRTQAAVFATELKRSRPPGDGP

SMILES	effect on DevR dimerization	concentration with the most dramatic effect on DevR dimerization [µg/mL]
Cl.Cn1c(=N)n(CC(=O)c2cc(C(C)(C)C)c(O)c(C(C)(C)C)c2)c2ccccc21 [1-(3,5-di-tert-butyl-4-hydroxyphenyl)-2-(2-imino-3-methyl-2,3-dihydro-1H-benzimidazol-1-yl)ethanone hydrochloride]	inhibitory effect against DevR dimerization at low concentrations	12.5
CC(=O)NS(=O)(=O)c1ccc(NC(=O)CCc2ccccc2)cc1 [N-(4-[(acetylamino)sulfonyl]phenyl)-3-phenylpropanamide]	inhibitory effect against DevR dimerization at low concentrations	12.5
